The source of these data is patent US7034005B2, “Use of agent for suppressing infection and proliferation of human immunodeficiency syndrome virus” (The Kitasato Institute, priority 2002, dated 2006).

The test system of one data set is p38MAPK. As to the kind of experiment: Tyrosine phosphorylation (activation) of p38MAPK in HIV-1 infected M-MΦ by Western blotting. The class given is cell-based, human. The conditions noted are these: 30 μM, day 2 of culture, HIV-1BAL infected M-MΦ, compared with DMSO (FIG. 19(A)). The method, then:
(§1) P38MAPK and ERK1/2 activation were determined using P38MAPK antibody, anti-ERK1/2 antibody, anti-tyrosine phosphorylation P38MAPK antibody and anti-tyrosine phosphorylation ERK1/2 antibody (New England Biolabs, Inc. U.S.), and phosphorylation reaction of these molecules was determined by Western blotting.
Thirty μM of EM, EM201, EM202, EM703 or CAM were added to M-MΦ infected with HIV-1BAL strain, tyrosine phosphorylation of p38MAPK was detected on day 2 of the culture by Western blotting. […] In any groups, total amount of p38MAPK (total sum of phosphorylated and non-phosphorylated p38MARK) was equal.

The test system of data set [1] is tyrosine kinase Hck protein. Description: Expression of tyrosine kinase Hck protein in M-MΦ by Western blotting. Type of data set: cell-based, human. The conditions noted are these: 30 μM, day 2 after HIV-1BAL infection, compared with DMSO control (FIG. 18). An excerpt:
(§2) Expression of tyrosine kinase Hck protein and transcription factor C/EBPβ protein in macrophage was examined after solubilizing the macrophage in SDS-PAGE sample buffer, performing 10% SDS-polyacrylamide electrophoresis, transferring the protein on the gel to immobilon P membrane (Millipore Inc. U.S.) and checking antibodies against these proteins by Western blotting. Antibody to tyrosine kinase Hck protein (N-30) and antibody to C/EBPβ (C-19) were purchased from Santacluse Inc. (U.S.). Western blotting was detected by Amersham ELC Regent (Amersham International plc, Buckinghamshire, UK). Strength of bands was expressed by PSL (photostimulating luminescence) value (A/mm^2).
(§3) These probes were dissolved in the serum free RPMI1640 medium, in which lipofectin (Life Technology Inc., U.S.) was dissolved at 5 μM concentration, at room temperature for 30 minutes, added with RPMI1640 medium, which contains 10% FCS, to the macrophage (final concentration 2 μM) and incubated at 37° C. for 24 hours. Thereafter, cells were washed with the medium, added the RPMI1640 medium containing 10% FCS without oligonucleotide, further cultured for 24 hours, and then infected with HIV-1.
Consequently, M-MΦ was subjected to contact infection with HIV-1BAL strain for 2 hours, added 30 μM of EM, EM201, EM202, EM703 or CAM, incubated and expression of tyrosine kinase Hck protein was observed on day 2 after the infection by Western blotting.

In data set [2] the test system is HIV-1BAL strain infected M-MΦ. As to the kind of experiment: Cytopathy (MGC formation) of HIV-1 infected M-MΦ. Type of data set: cell-based, human. The following applies: 30 μM, HIV-1BAL (FIG. 17). The method, then: Formation of cell cluster and cell fusion was observed from the 2nd day of the incubation only in virus producing M-MΦ and formation of multinucleatic giant cells were recognized from the culture day 4–7 [refer to FIG. 2(A)]. On the other hand, in GM-MΦ without generation of virus, nomorphological changes were observed [refer to FIG. 2(B)].
M-MΦ was subjected to contact infection with HIV-1BAL strain for 2 hours, added 30 μM of EM, EM201, EM202, EM703 or CAM, incubated and observed the cell morphology.

Data set [3] deals with HIV-1BAL strain in GM type macrophage (GM-MΦ) derived from human monocytes. Description: Proliferation of HIV-1 in GM-MΦ: p24 protein in culture supernatant by sandwich ELISA. The conditions noted are these: for viral generation in GM-MΦ: 30 μM, HIV-1BAL, all assay points up to 14 days, similar to DMSO control (FIG. 14). Type of data set: cell-based. The method, then:
(§4) Macrophages derived from monocytes were prepared by culturing the recovered monocytes in the presence of M-CSF (macrophage colony-stimulating factor) (10^4 U/ml, provided by Morinaga Milk Co.), granulocytes and granulocyte-macrophage colony-stimulating factor, GM-CSF) (500 U/ml, provided by Japan Scheling Plough Co., Osaka, or purchased from R & S Genzyme-TECHNE Inc.) with RPMI1640 medium added with FCS10% (Nissui Seiyaku Co., Tokyo) for 7–8 days.
(§5) The macrophage prepared by differential induction of M-CSF from human monocytes is designated as M type macrophage (M type MΦ or M-MΦ) and the macrophage prepared by differential induction of GM-CSF from human monocytes is designated as GM type macrophage (GM type MΦ or GM-MΦ) Further, alveolar macrophage (alveolar MΦ or A-MΦ) was prepared as follows. Cells in the alveolar lavage liquid obtained from the alveolar lavage of healthy volunteers were recovered, suspended and adhered to plastics, then the non-adhered cells were washed out and the remained adhered cells were designated as the alveolar MΦ.
(§6) Infection of HIV-1 to macrophage was performed as follows. Macrophage directed viral strains, HIV-1JR-FL and HIV-1BAL, were infected for 2 hours in contact with M-MΦ, GM-MΦ and A-MΦ (adjusted to 2.5×10^5/well, Flacon No3043: Becton Dickinson Labware, Inc. U.S.)at low concentration (p24 antigen titer 50 ng/ml, TCID50=3000/ml virus to final concentration at 100 pg/ml), and non-adsorbed virus to the macrophage was washed out, and cultured with adding fresh medium. In case of the medium with M-MΦ, M-CSF was added (10^4 U/ml), and that of the medium with GM-MΦ, GM-CSF was added (500 U/ml).
(§7) Proliferation of virus was examined with the released viral particles in the culture supernatant after the infection by the sandwich ELISA using two types of anti-p24 antibody (Nu24 and 10B5^13). The following JAM62 and JAM65 were used as LTR (HIV long terminal repeat)-gap gene primer. The following JAM63 and JAM 64 were used as the internal primer for the nested PCR. • JAM62: • 5′-[…]-3′ (SEQ ID NO: 1) • JAM65: • 5′-[…]-3′ (SEQ ID NO: 2) • JAM63: • 5′-GTGTOACTCTGGTAACTAGAGATCC-3′ (SEQ ID NO: 3) • JAM64: • 5′-[…]-3′ (SEQ ID NO: 4) (1-4) Assay of Expression of Tyrosine Kinase Hck Protein and Transcription Factor C/EBPβ Protein
(§8) In order to show growth suppression effect of the present invention, among macrolide derivatives, EM, EM201, EM202, EM703, CAM, EM722, EM730, EM732, EM736, EM734, EM735, EM747, EM748, EM743, EM746, EM750 or EM751 was dissolved in DMSO with each 100 mM concentration, and used in dilution with the medium thereafter. A control group was M-MΦ treated only with DMSO used for dissolving macrolide derivatives.
(§9) M-MΦ and GM-M Φ were subjected to contact infection with HIV-1BAL strain for 2 hours, added 30 μM of EM, EM201, EM202, EM703, CAM,EM722, EM730, EM732, EM736, EM734, EM735, EM747, EM748, EM743, EM746, EM750 or EM751, incubated for 14 days and amount of p24 protein in the cultured supernatant was assayed in the time-dependent manner.
For orientation: An ELISA detects its analyte on a solid surface through an enzyme-linked reagent.

The test system of data set [4] is HIV-1BAL strain in M type macrophage (M-MΦ) derived from human monocytes. Description: Proliferation of HIV-1 in M-MΦ: p24 protein in culture supernatant by sandwich ELISA. Type of data set: cell-based. The conditions noted are these: for suppression of viral generation (p24 in culture supernatant) in M-MΦ: 30 μM, HIV-1BAL, 14 days of culture, compared with DMSO control (FIG. 13); for viral proliferation at 300 μM in M-MΦ: also observed in DMSO control, ascribed to cytotoxicity of DMSO; for concentration dependence of suppressive action on HIV-1BAL in M-MΦ: various concentrations (FIG. 16). The protocol:
as §4, §5, §6, §7, §8, §9

In another data set the test system is ERK1/2. Description: Tyrosine phosphorylation (activation) of ERK1/2 in HIV-1 infected M-MΦ by Western blotting. The conditions noted are these: 30 μM, HIV-1BAL infected M-MΦ, compared with DMSO (FIG. 19(B)). The class given is cell-based, human. The method, then: as §1
In any groups, total amount of ERK1/2 (total sum of phosphorylated and non-phosphorylated p38MARK) was equal [refer to FIG. 19(B)].
On the technique in general: In western blotting, separated proteins are transferred to a membrane and probed.

Data set [5] concerns transcription factor C/EBPβ protein. As to the kind of experiment: Expression of C/EBPβ protein in GM-MΦ by Western blotting. The class given is cell-based, human. The following applies: oligonucleotide treated GM-MΦ (FIG. 11).
Text: as §2, §3

Take `CC[C@H]1OC(=O)[C@H](C)[C@@H](O[C@H]2C[C@@](C)(OC)[C@@H](O)[C@H](C)O2)[C@H](C)[C@@H](O[C@@H]2O[C@H](C)C[C@H](N(C)C)[C@H]2O)[C@@]2(C)C[C@@H](C)[C@@]3(O[C@@]1(C)[C@H](O)[C@H]3C)O2` [EM202, 6,9,12-Anhydroerythromycin A]: the “tyrosine phosphorylation of p38MAPK” value with p38MAPK was “recognized to decrease, though not so strong”. In addition, in data set [1], the “expression of tyrosine kinase Hck protein in HIV-1 infected M-MΦ” value (“expression … in HIV-1 infected M-MΦ” below) is recorded as “the suppression of tyrosine kinase Hck protein was observed, though not so strong”. The “cytopathic effect (MGC formation) in HIV-1 infected M-MΦ” value (“cytopathic effect (MGC formation)” for short) in data set [2] is “formation of MGC was slightly recognized”. Besides, the “viral generation in GM-MΦ” value in data set [3] is listed as “almost no viral generation was recognized”. Besides, in data set [4], the “suppression of viral generation (p24 in culture supernatant) in M-MΦ” value (“suppression of viral generation” below) is reported as “suppression of viral generation was recognized, though not so strong”; the “viral proliferation at 300 μM in M-MΦ” value was “viral proliferation at 300 μM was observed”; the “concentration dependence of suppressive action on HIV-1BAL in M-MΦ” value (“concentration dependence” for short) is “exhibited suppression of viral production depending upon drug concentration”. The “tyrosine phosphorylation of ERK1/2” value in the data set on ERK1/2 is recorded as “weakly recognized as same in the control group”.
`CCC(O)C(C)(O)C1OC(=O)C(C)C(OC2CC(C)(OC)C(O)C(C)O2)C(C)C(OC2OC(C)CC(NC)C2O)C2(C)CC(C)=C(O2)C1C` (stereo not drawn) [EM703, de(3′-N-methyl)-8,9-anhydro-pseudoerythromycin A 6,9-hemiketal]: the “tyrosine phosphorylation of p38MAPK” value in the data set on p38MAPK is reported as “significantly decreased”. In addition, the “expression … in HIV-1 infected M-MΦ” value in data set [1] was “strongly suppressed”. For the same compound, in data set [2], the “cytopathic effect (MGC formation)” value is reported as “no cytopathic effect such as MCG formation was observed”. Also, the “viral generation in GM-MΦ” value in data set [3] is “almost no viral generation was recognized”. In addition, the “proliferation of virus in M-MΦ at 3 μM” value in data set [4] (3 μM) was “inhibited almost completely the proliferation of virus”. Besides, in data set [4], the “suppression of viral generation” value is “almost no p24 was detected”, the “viral proliferation at 300 μM in M-MΦ” value is given as “viral proliferation at 300 μM was observed” and the “concentration dependence” value is given as “concentration dependent manner”. Besides, the “tyrosine phosphorylation of ERK1/2” value in the data set with ERK1/2 is “promotion of tyrosine phosphorylation of ERK1/2 was recognized”.
Take `CCC1OC(=O)C(C)C(O[C@H]2C[C@@](C)(OC)[C@@H](O)[C@H](C)O2)C(C)C(O[C@@H]2O[C@H](C)C[C@H](N(C)C)[C@H]2O)C(C)(O)CC(C)C(=O)C(C)C(O)C1(C)O` (stereo partly drawn) [EM, reference compound]: the “tyrosine phosphorylation of p38MAPK” value in the data set with p38MAPK is “recognized to decrease, though not so strong”. For the same compound, the “expression … in HIV-1 infected M-MΦ” value in data set [1] was “the suppression of tyrosine kinase Hck protein was observed, though not so strong”. The “cytopathic effect (MGC formation)” value in data set [2] is given as “formation of MGC was slightly recognized”. Moreover, the “viral generation in GM-MΦ” value in data set [3] is “almost no viral generation was recognized”. Also, in data set [4], the “suppression of viral generation” value is “suppression of viral generation was recognized, though not so strong”; the “viral proliferation at 300 μM in M-MΦ” value is listed as “viral proliferation at 300 μM was observed”; the “concentration dependence” value is given as “exhibited suppression of viral production depending upon drug concentration”. Further, in the data set with ERK1/2, the “tyrosine phosphorylation of ERK1/2” value was “weakly recognized as same in the control group”.
Consider “C/EBPβ-S: Phosphorothioate-modified sense oligonucleotide probe of C/EBPβ, 5′-CCGCGTTCATOCAACOCCTG-3′ (SEQ ID NO: 9) (sense CCGCGTTCATGCAACGCCTG; all phosphorothioate, sugars by position and methylation of C not given here) [reference compound]”, for which, in data set [5], the “changes in expression of C/EBPβ in GM-MΦ” value was “not recognized”. For the same compound, in data set [3] (HIV-1 infection after pretreatment (FIG. 12)), the “HIV-1 growth promotion (p24 in culture supernatant) in oligonucleotide pretreated GM-MΦ” value was “not recognized”.
